The values that follow come from ChEMBL document CHEMBL1155824, “Synthesis and antitumor activity of cyclodepsipeptide zygosporamide and its analogues” (Bioorg Med Chem Lett, 2008).

Usually IC50 stands for the concentration that gives 50% inhibition. The low end stands for greater potency, the high end for weaker potency.

What all share (format): functional, cell-based
Assay [1] has as its system SF-268. Description: Cytotoxicity against human SF268 cells.
Assay [2] concerns SF-295. The assay can be described thus: Cytotoxicity against human SF295 cells.
Assay [3] has as its system A549. The assay can be described thus: Cytotoxicity against human A549 cells.
Assay [4] relates to MDA-MB-231. Description: Cytotoxicity against human MDA-MB-231 cells.
The subject of assay [5] is HCT-116. The assay can be described thus: Cytotoxicity against human HCT116 cells.

For the compound `CC(C)C[C@@H]1OC(=O)[C@H](Cc2ccccc2)NC(=O)[C@H](C)NC(=O)[C@@H](CC(C)C)NC(=O)[C@H](Cc2ccccc2)NC1=O`, the IC50 is greater than 50 µM in assay [1]; greater than 50 µM in assay [2]; greater than 50 µM in assay [3]; greater than 50 µM in assay [4]; greater than 50000 nM in assay [5].
With `CC(C)C[C@@H]1NC(=O)[C@@H](CC(C)C)NC(=O)[C@H](Cc2ccccc2)NC(=O)[C@H](CC(C)C)OC(=O)[C@H](C)NC1=O`, the IC50 in assay [1] was 8.8 µM; in assay [2], 6 µM; in assay [3] it was greater than 50 µM; in assay [4] it was 2.8 µM; in assay [5], 2700 nM.
On the same counts, the results for `CC(C)C[C@@H]1NC(=O)[C@@H](CC(C)C)NC(=O)[C@H](C)NC(=O)[C@H](CC(C)C)OC(=O)[C@H](Cc2ccccc2)NC1=O` are 35 µM, 19.7 µM, 31 µM, 7.5 µM and greater than 50000 nM.
In the same order, the values of `CC(C)C[C@@H]1NC(=O)[C@@H](C)NC(=O)[C@H](Cc2ccccc2)NC(=O)[C@H](CC(C)C)OC(=O)[C@H](Cc2ccccc2)NC1=O` are 10.4 µM, 8.7 µM, greater than 50 µM, 5 µM and 2100 nM.
On the same counts, the results for `CC(C)C[C@@H]1NC(=O)[C@@H](CC(C)C)NC(=O)[C@H](Cc2ccccc2)NC(=O)[C@H](C)OC(=O)[C@H](Cc2ccccc2)NC1=O` are 31 µM, 32 µM, greater than 50 µM, greater than 50 µM and 7800 nM.
With `CC(C)C[C@@H]1NC(=O)[C@H](Cc2ccccc2)NC(=O)[C@H](CC(C)C)NC(=O)[C@@H](CC(C)C)NC(=O)[C@H](Cc2ccccc2)NC1=O`, the IC50 in assay [1] is 20.5 µM; in assay [2], 14.4 µM; in assay [3] it was 21 µM; in assay [4], greater than 50 µM; in assay [5] it was 1900 nM.
On the same counts, the results for `CC(=O)O[C@H]1C(=O)[C@@]2(C)[C@H]([C@H](OC(=O)c3ccccc3)[C@]3(O)C[C@H](OC(=O)[C@H](O)[C@@H](NC(=O)c4ccccc4)c4ccccc4)C(C)=C1C3(C)C)[C@]1(OC(C)=O)CO[C@@H]1C[C@@H]2O` [PACLITAXEL] are 0.0153 µM, 0.29 µM, 0.0231 µM, 0.0405 µM and 13.6 nM.
In the same order, the values of `CC(C)C[C@@H]1NC(=O)[C@@H](CC(C)C)NC(=O)[C@H](Cc2ccccc2)NC(=O)[C@H](CC(C)C)OC(=O)[C@H](Cc2ccccc2)NC1=O` [ZYGOSPORAMIDE] are 4.6 µM, 4.2 µM, 2.5 µM, 5.7 µM and 22000 nM.
